Laboratory results as given in patent US11977028B2, “Mechanical-bond-induced exciplex fluorescence” (Northwestern University, priority 2020, dated 2024).
Values joined by “and” are separate entries in the source; they are usually repeats but may differ in a detail not shown here. Equal values may be shown once.

Experiments:
[1] = system: MIA PaCa-2 prostate cancer cells; experiment: Live-cell confocal microscopy imaging; type: cell-based; settings: 20×10^−6 M, 6 hours treatment, excitation 458 nm
Protocol: (§1) Cells were grown in standard DMEM (supplemented with 10% Fetal Bovine Serum and 1% Penicillin-Streptomycin, supplier=Corning). Cells were seeded into imaging coverglass chamber 40 hours prior to treatment. Compounds were resuspended in deionized H2O then diluted to the final concentration in media. Cells were treated with compounds for 6 hours prior to imaging.
(§2) All imaging was done on a Leica SP5 laser scanning confocal with LAS AF software in the Biological Imaging Facility at Northwestern University (Evanston, IL). A single excitation wavelength (458 nm) was used at a power of 5 uW. For the emission collection, two Leica spectral Hybrid (HyD) detectors were used; one was set to collect a wavelength range of 500-575 nm (with a gain of 200%) and the second was set to collect a wavelength range of 580-635 nm (with a gain of 103%). Images were processed with FIJI/ImageJ (NIH) and settings were kept consistent throughout the series of images.

[2] = system: MIA PaCa-2 cancer cells; experiment: Live-cell confocal microscopy imaging; type: cell-based; settings: concentrations lower than 10×10^−6 M
Protocol: as §1, §2

[3] = Absorption and photoluminescence spectroscopy in solution; type: physicochemical
Source text: The close proximity of the anthracene units in the mechanically interlocked cyclophanes was expected to give rise to remarkable optical properties distinct from those of the free cyclophanes. We explored the absorption and fluorescence properties of all compounds at high dilution (4×10^−7 M) to avoid reabsorption processes^40 and aggregation effects.^17 All of the optical parameters are summarized in Tables 1 and 2. Initially, we explored the influence of the pyridine/pyridinium units on the optical properties of both ^2,6AnBox^4+ and ^9,10AnBox^4+ cyclophanes. The presence of two pyridinium units within the linker dramatically affect the optical properties of the anthracene moiety. Although ^2,6AnBPY (FIG. 5C) and ^9,10AnBPY display^41 characteristic vibronic peaks associated with the anthracene moiety at 290 and 400 nm, ^2,6AnDB^2+ and ^9,10AnDB^2+ display a shift of the band at 290 to 330 nm (FIG. 5A) and the emergence of a new featureless broad band at 450 nm associated with CT from the anthracene moiety to the pyridinium unit. It is noteworthy that phenylene-bridged bipyridyl linkers (ExBIPY) display^35 a single absorption peak at 325 nm in MeCN, while the anthracene moiety leads to the emergence of some push-pull D-A character.
All reagents were purchased from commercial suppliers (Aldrich or Fisher) and used without further purification. Anthracene derivatives, 9,10-bis(4-pyridyl)anthracene (^9.^10AnBPY) and 2,6-bis(4-pyridyl)anthracene (^2,6AnBPY) were synthesized following^1,2 reports in the literature. All reactions and manipulations were carried out under a dry N2 atmosphere using standard Schlenk. Thin-layer chromatography (TLC) was performed on silica gel 60 F254 TLC plates (Merck). Column chromatography was carried out using CombiFlash® Automation Systems (Teledyne ISCO) employing both normal phase (RediSep Rf Gold® Normal-Phase Silica) and reverse phase (RediSep Rf Gold® Reversed-phase C18). […] All the spectra were baseline-corrected with a MeCN blank sample. The photoluminescence spectra of all samples were obtained with a Fluorolog-3 spectrafluorometer (Horiba Jobin Yvon) in a 2-mm quartz cuvette with 3-nm slit width and a front-phase geometry. The time-correlated single photon counting setup is described elsewhere.^3 Nuclear magnetic resonance (NMR) spectra were recorded on a Bruker Avance III 500 and 600 MHz spectrometers, with working frequencies of 500 and 600 MHz (′H NMR) and 125 MHz (^13C NMR), respectively. Chemical shifts are reported in ppm relative to the signals corresponding to the residual non-deuterated solvents (CD3CN: δ1−1=1.94 ppm and δC=1.32 ppm). High-resolution mass spectra (HRMS) were measured on an Agilent 6210 Time of Flight (TOF) LC-MS, using an ESI source, coupled with Agilent 1100 HPLC stack, using direct infusion (0.6 mL min ^−1). The binding constants were determined using this link: website http://supramolecular.org.^4

Q: What does the source list for `c1cc2ccc1C[n+]1ccc(cc1)-c1ccc3cc4cc(ccc4cc3c1)-c1cc[n+](cc1)Cc1ccc(cc1)C[n+]1ccc(cc1)-c1ccc3cc4cc(ccc4cc3c1)-c1cc[n+](cc1)C2` [^2,6AnBox^4+]?
A: emission in the green channel (500-575 nm) in live cells [1]: an emission in the green channel; emission in the red channel (580-635 nm) in live cells [1]: very weak emission in the red channel; emission detected in live cells [2]: No emissions; Φ (PL quantum yield) ([3]; 4 × 10^−7 M, MeCN): 3.6%; λabs ([3]; 4 × 10^−7 M, MeCN): 458 nm; λem ([3]; 4 × 10^−7 M, MeCN): 548 nm and 562 nm; τ (emission lifetime) ([3]; 4 × 10^−7 M, MeCN, 405 nm excitation): 3 ns; λem ([3]; 4 × 10^−7 M, MeCN, listed as cyclophane): 562 nm; Stokes shifts (δ) ([3]; DMF, 4 × 10^−7 M): 3153 cm⁻¹; λabs ([3]; DMF, 4 × 10^−7 M): 472 nm; λem ([3]; DMF, 4 × 10^−7 M): 549 nm; λexc ([3]; DMF, 4 × 10^−7 M): 468 nm; Stokes shifts (δ) ([3]; EtOH, 4 × 10^−7 M): 3574 cm⁻¹; λabs ([3]; EtOH, 4 × 10^−7 M): 468 nm; λem ([3]; EtOH, 4 × 10^−7 M): 562 nm; λexc ([3]; EtOH, 4 × 10^−7 M): 468 nm; Stokes shifts (δ) ([3]; H2O, 4 × 10^−7 M): 3284 cm⁻¹; λabs ([3]; H2O, 4 × 10^−7 M): 458 nm; λem ([3]; H2O, 4 × 10^−7 M): 553 nm; λexc ([3]; H2O, 4 × 10^−7 M): 468 nm; Stokes shifts (δ) ([3]; Me2SO, 4 × 10^−7 M): 3915 cm⁻¹; λabs ([3]; Me2SO, 4 × 10^−7 M): 460 nm; λem ([3]; Me2SO, 4 × 10^−7 M): 570 nm; λexc ([3]; Me2SO, 4 × 10^−7 M): 466 nm; charge transfer (CT) absorption band ([3]; MeCN): 458 nm; Stokes shifts (δ) ([3]; MeCN, 4 × 10^−7 M (Table 2)): 3946 cm⁻¹; λabs ([3]; MeCN, 4 × 10^−7 M (Table 2)): 458 nm; λem ([3]; MeCN, 4 × 10^−7 M (Table 2)): 562 nm; λexc ([3]; MeCN, 4 × 10^−7 M (Table 2)): 460 nm; charge transfer (CT) absorption band ([3]; MeCN, listed as cyclophane): 455 nm; Stokes shifts (δ) ([3]; MeOH, 4 × 10^−7 M): 3854 cm⁻¹; λabs ([3]; MeOH, 4 × 10^−7 M): 460 nm; λem ([3]; MeOH, 4 × 10^−7 M): 568 nm; λexc ([3]; MeOH, 4 × 10^−7 M): 466 nm; concentration dependence of excimer/exciplex emission ([3]; from high concentration to high dilution (10^−8 M)): absence of excimer emission at high concentration
